Results taken from ChEMBL document CHEMBL5537159, “Discovery and SAR of JTE-151: A Novel RORγ Inhibitor for Clinical Development” (J Med Chem, 2024).

Assays:
[1] = Volume of distribution at steady state in CD(SD) rat at 1 mg/kg, iv administered as single dose and measured after 24 hrs; assay type: ADME, organism-based; conditions: in vivo, read-out: Vdss
[2] = Metabolic stability in human liver microsomes assessed as compound remaining at 5 umol/L measured after 60 mins by UPLC/MS analysis; assay type: ADME, Microsome; conditions: dose 5 µmol/L, read-out: Stability
[3] = Lipophilicity, logD of compound by RP-HPLC analysis; assay type: physicochemical
[4] = AUCinfinity in CD(SD) rat at 3 mg/kg, po administered as single dose and measured after 24 hrs; assay type: ADME, organism-based; conditions: in vivo
[5] = Apparent permeability in human Caco-2 cells at 25 umol/L incubated for 2 hrs by LC/MS/MS analysis; assay type: ADME, cell-based; conditions: dose 25 µmol/L
[6] = Oral bioavailability in CD(SD) rat at 3 mg/kg administered as single dose and measured after 24 hrs; assay type: ADME, organism-based; conditions: in vivo
[7] = Total body clearance in CD(SD) rat at 1 mg/kg, iv administered as single dose and measured after 24 hrs; assay type: ADME, organism-based; conditions: in vivo
[8] = Elimination half life in CD(SD) rat at 1 mg/kg, iv administered as single dose and measured after 24 hrs; assay type: ADME, organism-based; conditions: in vivo, read-out: beta t1/2 (converted)
[9] = MRT in CD(SD) rat at 3 mg/kg, po administered as single dose and measured after 24 hrs; assay type: ADME, organism-based; conditions: in vivo
[10] = target: T1, Nuclear receptor ROR-gamma (Homo sapiens, UniProt P51449); experiment: Inhibition of GAL4 DNA-binding domain fused RORgamma (unknown origin) transfected in CHO-K1 cells incubated for 2 days by luciferase assay; assay type: cell-based
T1 sequence (P51449 whole entry): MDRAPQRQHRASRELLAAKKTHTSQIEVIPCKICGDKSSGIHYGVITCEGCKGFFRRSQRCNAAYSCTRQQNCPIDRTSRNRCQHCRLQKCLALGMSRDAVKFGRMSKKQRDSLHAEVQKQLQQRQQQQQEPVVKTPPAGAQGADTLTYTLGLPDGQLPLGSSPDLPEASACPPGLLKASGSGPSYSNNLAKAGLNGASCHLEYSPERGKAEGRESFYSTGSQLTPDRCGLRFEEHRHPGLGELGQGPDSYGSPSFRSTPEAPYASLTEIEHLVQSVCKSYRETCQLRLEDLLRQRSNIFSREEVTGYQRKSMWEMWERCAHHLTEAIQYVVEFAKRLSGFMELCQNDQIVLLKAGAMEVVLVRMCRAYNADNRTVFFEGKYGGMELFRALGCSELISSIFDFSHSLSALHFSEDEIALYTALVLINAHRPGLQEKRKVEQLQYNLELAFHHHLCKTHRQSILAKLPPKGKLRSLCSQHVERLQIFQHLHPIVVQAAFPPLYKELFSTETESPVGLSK

SMILES: Cc1ccc(NC(=O)C[C@H](CCC(=O)O)n2nnc([C@H]3C[C@@H](CC(C)(C)C)C3)c2C2CC2)c(Cl)c1
- Vd [1]: 1.4 L/kg
- remaining at 1 h, 5 µM [2]: 73%
- logD [3]: 4.3
- AUC(0-inf) [4]: 2 µM·h
- Papp at 2 h, 25 µM [5]: 22.6 ×10⁻⁶ cm/s
- bioavailability [6]: 61%
- clearance [7]: 30 mL/min/kg
- half-life [8]: 1.5 h
- MRT [9]: 2.5 h
- EC50 [10]: 22 nM

SMILES: Cc1ccc(NC(=O)C[C@H](CCC(=O)O)c2nnn([C@H]3C[C@@H](CC(C)(C)C)C3)c2C2CC2)c(Cl)c1
- Vd [1]: 0.67 L/kg
- remaining at 1 h, 5 µM [2]: 86%
- logD [3]: 4.2
- AUC(0-inf) [4]: 2.8 µM·h
- Papp at 2 h, 25 µM [5]: 30.9 ×10⁻⁶ cm/s
- bioavailability [6]: 46%
- clearance [7]: 16.5 mL/min/kg
- half-life [8]: 1.5 h
- MRT [9]: 3.6 h

SMILES: Cc1ccc(NC(=O)CC(c2nnc([C@H]3C[C@@H](CC(C)C)C3)n2C2CC2)C2CN(C)C2)c(C)c1 (mixture of isomers)
- remaining at 1 h, 5 µM [2]: 78%
- logD [3]: 3.8
- Papp at 2 h, 25 µM [5]: 0.7 ×10⁻⁶ cm/s
- EC50 [10]: 6900 nM

SMILES: Cc1ccc(NC(=O)C[C@H](CC(C)(C)O)c2nnc([C@H]3C[C@@H](CC(C)C)C3)n2C2CC2)c(C)c1.Cl
- remaining at 1 h, 5 µM [2]: 0%
- logD [3]: 4.4
- Papp at 2 h, 25 µM [5]: 25.3 ×10⁻⁶ cm/s
- EC50 [10]: 30 nM
